Measured values as given in US9446119B2 (priority 2011, dated 2016).

These substances were tested on PBMCs.
Assay type: cell-based, human

Substance | S.I. (stimulation index: mean spots per well containing polypeptide/mean spots per background wells) | number of subjects recognizing the peptide | IFNγ response to the VARV version of the polypeptide
18 (GVIFLISVIVLVCSCDGVIFLISVIVLVCSCN) [compound 18] | 2.1 | – | –
CYIFHSDYQLFSDAKA | 1.1 | – | –
CYILHSDYQLFSDAKA [Polypeptide 6] | 3.5 | 3 subjects | –
DTFFRTSPMVIATTDI | 1.1 | – | –
DVLFRLENHAETLRAA | 0.7 | – | –
EVLFRLENHAETLRAA [Polypeptide 21] | 2.5 | – | –
GVIFLISVIVLVCSCN | 2.3 | – | detected
KADGDDNEETLKQRLT | 1 | – | –
LYNKPLYEVNAIITLI | 1 | – | –
